Experimental data published in ChEMBL document CHEMBL3259595, “Nitric oxide synthase inhibitors that interact with both heme propionate and tetrahydrobiopterin show high isoform selectivity” (J Med Chem, 2014).

What was measured:
[1] = Selectivity ratio of Ki for purified mouse iNOS to Ki for purified rat nNOS
[2] = Selectivity ratio of Ki for purified bovine eNOS to Ki for purified rat nNOS
[3] = target: T1, Nitric oxide synthase, inducible (Mus musculus, UniProt P29477); assay: Inhibition of purified mouse iNOS assessed as inhibition of nitric oxide-mediated oxidation of hemoglobin-A by hemoglobin capture assay
T1 sequence (P29477 whole entry): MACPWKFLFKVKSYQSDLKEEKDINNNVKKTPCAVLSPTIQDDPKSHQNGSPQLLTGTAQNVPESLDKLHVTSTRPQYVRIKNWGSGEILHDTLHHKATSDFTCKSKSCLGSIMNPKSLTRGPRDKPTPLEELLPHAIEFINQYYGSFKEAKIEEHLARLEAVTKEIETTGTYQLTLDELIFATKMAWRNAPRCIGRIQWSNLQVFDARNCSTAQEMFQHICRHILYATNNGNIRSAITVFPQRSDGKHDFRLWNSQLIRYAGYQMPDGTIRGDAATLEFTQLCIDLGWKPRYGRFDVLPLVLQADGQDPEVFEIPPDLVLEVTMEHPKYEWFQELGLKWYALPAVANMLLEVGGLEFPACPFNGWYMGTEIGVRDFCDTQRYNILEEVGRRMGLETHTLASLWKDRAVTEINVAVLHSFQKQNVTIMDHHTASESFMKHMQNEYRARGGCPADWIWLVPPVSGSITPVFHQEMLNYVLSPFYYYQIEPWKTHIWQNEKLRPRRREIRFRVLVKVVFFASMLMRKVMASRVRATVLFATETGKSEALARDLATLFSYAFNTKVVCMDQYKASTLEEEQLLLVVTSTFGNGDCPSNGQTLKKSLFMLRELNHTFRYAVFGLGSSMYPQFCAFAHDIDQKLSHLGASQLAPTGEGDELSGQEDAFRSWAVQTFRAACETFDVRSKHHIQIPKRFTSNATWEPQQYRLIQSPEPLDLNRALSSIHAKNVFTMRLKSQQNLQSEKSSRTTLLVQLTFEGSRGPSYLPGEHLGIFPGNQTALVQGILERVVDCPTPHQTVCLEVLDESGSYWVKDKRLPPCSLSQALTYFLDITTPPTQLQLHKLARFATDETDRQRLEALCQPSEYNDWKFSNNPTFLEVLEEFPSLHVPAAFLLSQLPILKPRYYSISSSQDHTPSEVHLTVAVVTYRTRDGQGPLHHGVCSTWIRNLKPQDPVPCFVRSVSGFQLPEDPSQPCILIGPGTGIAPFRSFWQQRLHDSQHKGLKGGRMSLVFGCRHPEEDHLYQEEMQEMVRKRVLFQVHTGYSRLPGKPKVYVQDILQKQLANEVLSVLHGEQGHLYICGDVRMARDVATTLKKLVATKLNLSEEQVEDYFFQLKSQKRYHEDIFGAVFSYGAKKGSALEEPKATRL

Nitric oxide synthase 3 = target: T2, Nitric oxide synthase 3 (Bos taurus, UniProt P29473); assay: Inhibition of purified bovine eNOS assessed as inhibition of nitric oxide-mediated oxidation of hemoglobin-A by hemoglobin capture assay
T2 sequence (P29473 whole entry): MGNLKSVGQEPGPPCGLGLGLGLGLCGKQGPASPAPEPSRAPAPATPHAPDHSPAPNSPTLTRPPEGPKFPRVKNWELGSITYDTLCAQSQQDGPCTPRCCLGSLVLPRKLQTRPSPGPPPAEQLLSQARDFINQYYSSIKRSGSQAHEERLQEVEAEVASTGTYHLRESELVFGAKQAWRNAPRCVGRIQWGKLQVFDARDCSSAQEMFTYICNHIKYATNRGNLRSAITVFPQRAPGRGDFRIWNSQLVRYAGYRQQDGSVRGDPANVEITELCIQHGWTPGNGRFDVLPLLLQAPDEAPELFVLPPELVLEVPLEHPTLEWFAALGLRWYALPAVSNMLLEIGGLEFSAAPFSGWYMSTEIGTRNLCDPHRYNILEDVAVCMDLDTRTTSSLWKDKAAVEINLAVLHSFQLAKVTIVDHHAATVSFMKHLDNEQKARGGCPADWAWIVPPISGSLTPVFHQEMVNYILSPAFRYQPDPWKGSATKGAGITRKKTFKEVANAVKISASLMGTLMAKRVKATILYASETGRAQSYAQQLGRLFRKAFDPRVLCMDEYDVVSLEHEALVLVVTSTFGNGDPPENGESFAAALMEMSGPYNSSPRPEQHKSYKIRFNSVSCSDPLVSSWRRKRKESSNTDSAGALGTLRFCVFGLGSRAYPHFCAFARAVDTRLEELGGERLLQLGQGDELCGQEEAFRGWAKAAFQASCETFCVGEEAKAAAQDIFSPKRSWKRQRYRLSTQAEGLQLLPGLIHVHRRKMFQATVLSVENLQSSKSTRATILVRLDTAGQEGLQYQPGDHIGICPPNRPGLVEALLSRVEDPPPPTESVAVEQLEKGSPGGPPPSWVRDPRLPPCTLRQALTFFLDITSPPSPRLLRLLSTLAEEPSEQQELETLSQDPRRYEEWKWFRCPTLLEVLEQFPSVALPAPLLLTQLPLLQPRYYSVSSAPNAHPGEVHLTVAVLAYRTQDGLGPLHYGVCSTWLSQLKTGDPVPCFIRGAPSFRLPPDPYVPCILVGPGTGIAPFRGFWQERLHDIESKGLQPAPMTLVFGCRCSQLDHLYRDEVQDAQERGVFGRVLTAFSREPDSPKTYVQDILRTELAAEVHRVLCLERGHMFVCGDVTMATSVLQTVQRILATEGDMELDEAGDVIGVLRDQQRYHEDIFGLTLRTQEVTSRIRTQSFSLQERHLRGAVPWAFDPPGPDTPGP

Nitric oxide synthase 1 = Nitric oxide synthase 1 (Rattus norvegicus, UniProt P29476); assay: Inhibition of purified rat nNOS assessed as inhibition of nitric oxide-mediated oxidation of hemoglobin-A by hemoglobin capture assay
Sequence of Nitric oxide synthase 1 (P29476 whole entry): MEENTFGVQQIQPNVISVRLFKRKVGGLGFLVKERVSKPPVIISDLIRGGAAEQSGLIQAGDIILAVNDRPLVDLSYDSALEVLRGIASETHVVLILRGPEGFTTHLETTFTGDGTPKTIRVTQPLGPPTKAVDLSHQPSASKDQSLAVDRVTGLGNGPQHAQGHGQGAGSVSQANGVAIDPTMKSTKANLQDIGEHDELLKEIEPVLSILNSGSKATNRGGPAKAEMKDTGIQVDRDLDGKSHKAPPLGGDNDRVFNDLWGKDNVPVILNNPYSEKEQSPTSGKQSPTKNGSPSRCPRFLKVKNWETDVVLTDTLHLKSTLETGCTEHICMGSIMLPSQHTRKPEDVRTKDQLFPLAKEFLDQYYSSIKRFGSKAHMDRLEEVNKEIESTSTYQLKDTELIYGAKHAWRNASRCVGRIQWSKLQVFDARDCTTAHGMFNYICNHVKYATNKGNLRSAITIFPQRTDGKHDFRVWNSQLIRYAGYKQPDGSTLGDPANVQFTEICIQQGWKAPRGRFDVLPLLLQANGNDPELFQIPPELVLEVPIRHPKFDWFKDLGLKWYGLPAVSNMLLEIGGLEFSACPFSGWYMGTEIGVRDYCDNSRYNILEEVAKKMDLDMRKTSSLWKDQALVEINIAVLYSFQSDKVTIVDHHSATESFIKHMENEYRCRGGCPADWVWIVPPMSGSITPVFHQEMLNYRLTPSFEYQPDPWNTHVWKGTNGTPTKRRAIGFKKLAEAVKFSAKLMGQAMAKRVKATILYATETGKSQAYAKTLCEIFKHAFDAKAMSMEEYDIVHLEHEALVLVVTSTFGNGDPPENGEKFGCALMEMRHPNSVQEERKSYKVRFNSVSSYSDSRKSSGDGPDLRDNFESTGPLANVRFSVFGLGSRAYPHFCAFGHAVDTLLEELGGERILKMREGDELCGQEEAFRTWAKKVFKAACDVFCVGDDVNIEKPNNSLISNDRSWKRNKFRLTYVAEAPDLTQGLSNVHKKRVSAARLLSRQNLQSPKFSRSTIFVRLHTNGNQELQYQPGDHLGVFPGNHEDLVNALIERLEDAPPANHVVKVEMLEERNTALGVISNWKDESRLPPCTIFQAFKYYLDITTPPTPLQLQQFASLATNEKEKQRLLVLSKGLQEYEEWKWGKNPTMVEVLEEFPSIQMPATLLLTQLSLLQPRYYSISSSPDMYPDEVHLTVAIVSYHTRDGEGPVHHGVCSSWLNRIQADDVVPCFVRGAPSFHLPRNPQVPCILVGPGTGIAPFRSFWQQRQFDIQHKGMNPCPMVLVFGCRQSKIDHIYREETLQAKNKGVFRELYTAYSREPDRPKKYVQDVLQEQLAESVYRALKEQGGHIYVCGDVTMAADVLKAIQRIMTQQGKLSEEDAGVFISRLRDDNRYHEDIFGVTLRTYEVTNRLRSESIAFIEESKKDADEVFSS

Which Ratio Ki [1] does the source give for `Cc1ccnc(CCc2cccc([C@@H](N)Cc3cc(C)cc(N)n3)c2)c1` here?
The Ratio Ki was over 110.

And the Ratio Ki [2]?
The Ratio Ki was 363.

And the Ki [3]?
Its Ki is over 100 µM.

What does the source list for `Cc1ccnc(CCc2cccc([C@H](N)Cc3cc(C)cc(N)n3)c2)c1`?
Ki (Nitric oxide synthase 3): 1050 µM; Ki [3]: > 100 µM

For `Cc1cc(N)nc(CCc2cccc(C(CN)Cc3cc(C)cc(N)n3)n2)c1` (racemic), which Ki (Nitric oxide synthase 1) is on record?
The Ki was 0.123 µM.

And the Ki [3]?
Its Ki is 17.9 µM.

What does the source list for `Cc1cc(N)nc(CCc2cccc(C(O)Cc3cc(C)cc(N)n3)c2)c1` (configuration not stated)?
Ki (Nitric oxide synthase 1): 0.07 µM; Ratio Ki [1]: 86; Ratio Ki [2]: 52; Ki (Nitric oxide synthase 3): 3.61 µM; Ki [3]: 5.99 µM
